Results: publication PMC5152921, “Evolutionary and Functional Diversification of the Vitamin D Receptor-Lithocholic Acid Partnership” (PLoS ONE, 2016)

Columns and labels:
Test in all cases: Transient transactivation assay (XREM-Luc, HepG2)
Assay type in all cases: cell-based
Details in all cases: 100 μM LCA
[1] = biological target: T1, Human VDR (Homo sapiens, UniProt P11473)
T1 sequence (P11473 1-427): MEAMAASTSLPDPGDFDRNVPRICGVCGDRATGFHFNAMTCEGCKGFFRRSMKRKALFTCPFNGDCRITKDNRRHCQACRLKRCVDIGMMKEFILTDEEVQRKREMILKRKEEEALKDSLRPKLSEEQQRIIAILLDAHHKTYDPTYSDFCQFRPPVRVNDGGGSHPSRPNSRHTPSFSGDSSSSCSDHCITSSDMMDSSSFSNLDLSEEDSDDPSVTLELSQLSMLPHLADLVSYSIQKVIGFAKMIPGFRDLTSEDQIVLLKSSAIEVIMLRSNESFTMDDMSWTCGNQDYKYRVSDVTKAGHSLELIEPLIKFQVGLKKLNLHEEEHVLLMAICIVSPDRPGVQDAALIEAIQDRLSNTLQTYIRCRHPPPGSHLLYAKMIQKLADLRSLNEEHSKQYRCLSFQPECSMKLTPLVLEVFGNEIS
Description: (§1) HepG2 cells (American Type Culture Collection #HB-8065) were cultured in T75 flasks with vented caps (Corning Life Sciences, Corning, NY) using Minimum Essential Medium (MEM) with phenol red supplemented with 10% fetal bovine serum, 1 mM sodium pyruvate, and 1X MEM non-essential amino acids. Cells were maintained following standard protocols in a 5% CO2 incubator set at 37°C, and split when 80–90% confluent.
(§2) For the transient transactivation assays, HepG2 cells were seeded in 96-well tissue culture plates at a density of 2.5x10^4 cells per well in complete phenol red-free MEM, and allowed to recover overnight. Transfections were performed the following day using Lipofectamine 2000 (Life Technologies, Grand Island, NY) as described previously. For functional comparisons, 89.7 ng/well of full-length pSG5-VDR was co-transfected with 19.2 ng/well human XREM-Luc reporter and 4.5 ng/well of pRL-CMV as an internal luciferase control. Coregulator studies included the addition of 18.3 ng/well of human coregulators (pCDNA-RXRWT, pCDNA-RXRAF2, pSG5-SRC1, pSG5-GRIP1 or pSG5-ACTR) where indicated. […] Controls include 120 nM 1,25D3 as a positive control, and ethanol as a vehicle control. Twenty-four hours post-exposure cells were tested for luciferase activity using the Dual-Glo Luciferase Assay System (Promega Corporation, Madison, WI) according to the manufacturer’s protocols. Luciferase data were first normalized to the pRL-CMV internal luciferase control. […] To calculate the impact of coregulators on VDR transactivation, VDR response in the presence of coregulators was normalized to VDR alone. All experiments were repeated 3 times and conducted as groups of 4 replicate wells. VDR response in the absence of coregulators was analyzed using a 1-way ANOVA followed by Dunnett’s multiple comparisons test. To examine the effects of different coregulators on VDR activation, data were analyzed using a 2-way ANOVA followed by Bonferroni’s multiple comparisons test in GraphPad Prism (GraphPad Inc, San Diego, CA).

[2] = biological target: T2, Lamprey VDR (Petromyzon marinus, UniProt Q7ZZY9)
T2 sequence (Q7ZZY9 1-406): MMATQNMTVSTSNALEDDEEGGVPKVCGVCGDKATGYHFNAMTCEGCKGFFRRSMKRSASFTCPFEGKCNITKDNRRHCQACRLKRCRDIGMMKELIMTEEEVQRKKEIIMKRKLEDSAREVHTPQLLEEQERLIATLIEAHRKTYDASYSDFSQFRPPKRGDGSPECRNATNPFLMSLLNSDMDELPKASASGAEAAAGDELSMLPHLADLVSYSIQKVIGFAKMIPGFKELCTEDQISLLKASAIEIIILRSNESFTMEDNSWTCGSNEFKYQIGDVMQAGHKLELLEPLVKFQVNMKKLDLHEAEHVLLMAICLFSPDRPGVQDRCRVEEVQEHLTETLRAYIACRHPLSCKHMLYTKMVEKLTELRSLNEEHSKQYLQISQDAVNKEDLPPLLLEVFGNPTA
T2 sequence (P19793 1-462 partner): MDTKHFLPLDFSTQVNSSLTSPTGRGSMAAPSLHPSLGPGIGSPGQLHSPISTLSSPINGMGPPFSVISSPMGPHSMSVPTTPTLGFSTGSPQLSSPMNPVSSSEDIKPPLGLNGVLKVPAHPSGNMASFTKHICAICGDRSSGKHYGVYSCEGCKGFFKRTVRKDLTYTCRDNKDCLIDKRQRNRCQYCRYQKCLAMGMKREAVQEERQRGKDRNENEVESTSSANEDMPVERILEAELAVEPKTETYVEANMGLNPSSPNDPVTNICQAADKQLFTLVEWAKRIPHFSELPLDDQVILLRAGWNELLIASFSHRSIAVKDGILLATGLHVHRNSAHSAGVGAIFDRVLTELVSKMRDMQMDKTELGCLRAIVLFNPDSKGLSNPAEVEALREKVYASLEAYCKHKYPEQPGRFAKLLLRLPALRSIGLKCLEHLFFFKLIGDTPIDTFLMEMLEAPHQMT
Description: as §1, §2

[3] = biological target: T3, Bichir VDR (Polypterus senegalus, UniProt A0A088GJ14)
T3 sequence (A0A088GJ14 1-421): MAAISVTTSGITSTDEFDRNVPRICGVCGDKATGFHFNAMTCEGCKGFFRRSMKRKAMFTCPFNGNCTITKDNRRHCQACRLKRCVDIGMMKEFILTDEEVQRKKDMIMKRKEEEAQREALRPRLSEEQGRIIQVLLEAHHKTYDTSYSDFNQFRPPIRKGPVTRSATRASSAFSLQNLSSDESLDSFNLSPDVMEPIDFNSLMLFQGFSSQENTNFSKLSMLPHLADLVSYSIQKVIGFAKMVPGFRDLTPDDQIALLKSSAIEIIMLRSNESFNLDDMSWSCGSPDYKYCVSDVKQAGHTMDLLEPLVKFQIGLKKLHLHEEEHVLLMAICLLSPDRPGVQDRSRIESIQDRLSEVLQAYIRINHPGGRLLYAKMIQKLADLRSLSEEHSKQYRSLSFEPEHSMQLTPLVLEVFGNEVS
T3 sequence (P19793 1-462 partner): T2 sequence (P19793 1-462 partner)
Description: as §1, §2

[4] = co-transfected human RXRWT, vs VDR alone
[5] = any SRC/p160 co-activator, presence or absence of RXRWT

In the case of `C[C@H](CCC(=O)O)[C@H]1CC[C@H]2[C@@H]3CC[C@@H]4C[C@H](O)CC[C@]4(C)[C@H]3CC[C@]12C` [LCA, 5β-cholanic acid-3α-ol], the “Effect of exogenous human RXRWT on VDR transactivation” value (“Effect of exogenous human RXRWT” for short) [1, 4] is reported as “significantly enhanced transactivation”, the “Effect of RXRWT+SRC1 or RXRWT+GRIP1 on VDR transactivation” value ([1]; compared to either coregulator individually) is reported as “significantly enhanced VDR transactivation” and the “Effect of SRC/p160 co-activators on VDR transactivation” value [2, 5] is reported as “No change in transactivation”. For the same compound, the “Effect of exogenous human RXRWT” value [2, 4] was “no effect”, the “Effect of SRC/p160 co-activators on VDR transactivation” value [3, 5] was “No change in transactivation” and the “Effect of exogenous human RXRWT” value [3, 4] was “no effect”.
